Experiments:
[1] = biological target: T1, C-C chemokine receptor type 2 (Homo sapiens, UniProt P41597); test: Displacement of [125I]CCL2 from CCR2 in human U2OS cell membranes at 1 uM by radioligand displacement assay
Target sequence in this assay (P41597 whole entry, looked up): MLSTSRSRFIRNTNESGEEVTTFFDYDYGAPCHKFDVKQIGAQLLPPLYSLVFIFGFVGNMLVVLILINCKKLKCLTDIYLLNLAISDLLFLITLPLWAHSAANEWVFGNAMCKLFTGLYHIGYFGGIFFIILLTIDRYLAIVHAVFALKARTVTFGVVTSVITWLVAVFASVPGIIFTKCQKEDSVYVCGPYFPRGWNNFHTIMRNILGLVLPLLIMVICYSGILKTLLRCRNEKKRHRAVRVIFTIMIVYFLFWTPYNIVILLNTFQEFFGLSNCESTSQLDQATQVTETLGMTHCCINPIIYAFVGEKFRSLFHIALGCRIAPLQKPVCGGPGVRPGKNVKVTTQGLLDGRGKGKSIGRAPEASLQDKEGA

[2] = biological target: T1, C-C chemokine receptor type 2; test: Displacement of [125I]CCL2 from CCR2 in human U2OS cell membranes by radioligand displacement assay
Target sequence in this assay (P41597 whole entry): as the sequence (P41597 whole entry, looked up) above

Compound | inhibition [1] | Ki [2]
Cc1ccc(C2CCC(N3CCC(NC(=O)CNC(=O)c4cccc(C(F)(F)F)c4)CC3)CC2)cc1 (stereo not given) | 38% | –
O=C(CNC(=O)c1cccc(C(F)(F)F)c1)NC1CCN(C2CCC(c3ccc(O)cc3)CC2)CC1 (stereo not given) | – | 0.139 µM
O=C(NCC(=O)N1CCC(NC2CCC(c3ccccc3)CC2)CC1)c1cccc(C(F)(F)F)c1 (stereo not given) | 31% | –
Cc1ccccc1C1CCC(N2CCC(NC(=O)CNC(=O)c3cccc(C(F)(F)F)c3)CC2)CC1 (stereo not given) | 26% | –
O=C(CNC(=O)c1cccc(C(F)(F)F)c1)NC1CCN(C2CCCC(c3ccccc3)C2)CC1 (stereo not given) | 10% | –
COc1cccc(C2CCC(N3CCC(NC(=O)CNC(=O)c4cccc(C(F)(F)F)c4)CC3)CC2)c1 (stereo not given) | – | 0.066 µM
COc1cccc(OC)c1C1CCC(N2CCC(NC(=O)CNC(=O)c3cccc(C(F)(F)F)c3)CC2)CC1 (stereo not given) | 42% | –
O=C(CNC(=O)c1cccc(C(F)(F)F)c1)NC1CCN(Cc2cn(-c3ccccc3)nn2)CC1 | 12% | –

More lines, now with the values ahead:

inhibition [1] | Ki [2] | Compound
24% | – | O=C(CNC(=O)c1cccc(C(F)(F)F)c1)NC1CCN(C2CCc3ccccc3C2)CC1 (stereo not given)
– | 0.27 µM | Cc1cccc(C2CCC(N3CCC(NC(=O)CNC(=O)c4cccc(C(F)(F)F)c4)CC3)CC2)c1 (stereo not given)
0% | – | O=C(CNC(=O)c1cccc(C(F)(F)F)c1)NC1CCN(Cc2ccc(Cl)cc2)CC1
– | 0.074 µM | O=C(CNC(=O)c1cccc(C(F)(F)F)c1)NC1CCN(C2CCC(c3ccccc3)CC2)CC1 (stereo not given)
6% | – | O=C(CNC(=O)c1cccc(C(F)(F)F)c1)NC1CCN(CCCc2ccccc2)CC1
41% | – | COc1cc(OC)cc(C2CCC(N3CCC(NC(=O)CNC(=O)c4cccc(C(F)(F)F)c4)CC3)CC2)c1 (stereo not given)
– | 0.09 µM | O=C(CNC(=O)c1cccc(C(F)(F)F)c1)NC1CCN(C2CCC(c3ccc4c(c3)OCO4)CC2)CC1 (stereo not given)

Reference: ChEMBL document CHEMBL3351763, “Design and synthesis of novel small molecule CCR2 antagonists: evaluation of 4-aminopiperidine derivatives” (Bioorg Med Chem Lett, 2014)
